# Reference: PMC9284121, “Florfenicol-Polyarginine Conjugates Exhibit Promising Antibacterial Activity Against Resistant Strains” (Frontiers in Chemistry, 2022)
# Where two headings read alike, the source gives them in different places. Where a SMILES comes first, the peptide text is derived from it.
# Tests used:
# Experiment in all cases: microbe, parasite or virus in culture
# MRSA (ATCC 43300) = assay type: cell-based, methicillin-resistant S. aureus
# Description: (§1) All the florfenicol-polyarginine conjugates were tested against Gram-positive and Gram-negative bacteria, including MRSA (ATCC 43300), S. aureus (ATCC 25923), E. coli (ATCC 25922), clinical strains of E. coli (2019XJ06, 2019XJ25, 2018XJ108, 2018XJ105, 2018XJ30) and clinical strains of florfenicol resistant E. coli (2017XJ30, 2019XJ20).
# (§2) Gram-negative E. coli (ATCC 25922), clinical strains of E. coli (2019XJ06, 2019XJ25, 2018XJ108, 2018XJ105, 2018XJ30) and clinical strains of florfenicol resistant E. coli (2017XJ30, 2019XJ20) and Gram-positive MRSA (ATCC 43300) and S. aureus (ATCC 25923) were maintained in 50% glycerol at −80°C up to the time of use. The bacterial strains were cultured in Muller-Hinton broth (Guangdong Huan Kai Microbial Sci. &Tech. Co., Ltd. in China) media. Mueller-Hinton agar (Guangdong Huan Kai Microbial Sci. & Tech. Co., Ltd. in China) was used as growth medium in solid media.
# (§3) CLSI guidelines were followed for determining MICs of all florfenicol-polyarginine conjugates by the broth microdilution method. The required bacterial (E. coli, S. aureus and MRSA) single colony was inoculated into Muller-Hinton broth (MHB) and cultured for 4–6 h. And then, the bacteria were adjusted to 10^6 CFU/ml in cultures. All compounds were prepared into a stock solution at a concentration of 0.1 mol/L with DMSO. The stock solutions were then diluted to required concentration (100, 50, 25, 12.5, 6.25, 3.125, 1.56, 0.78, 0.39 μmol/L) with MHB media. Subsequently, a 96 well plate was filled with these dilutions and 10^6 CFU/ml bacterial suspension. The diluted compounds of different concentrations (100 µl) were first added to 96 well plate, and then 100 µl bacterial dilutions (10^6 CFU/ml) was added. The negative and positive controls were 200 µl of MHB media and 100 µl of bacterial suspension combined with 100 µl of MHB media, respectively. The experiment of each compound was repeated three times, and each experiment was at least twice repeated. The 96 well plates were incubated at 37°C for 16–24 h. MIC indicated antibacterial activity. Florfenicol was used as a control drug.
# E.coli (ATCC 25922) = assay type: cell-based, Escherichia coli
# Description: as §1, §2, §3
# [1] = system: E. coli clinical strain 2019XJ06; assay type: cell-based, Escherichia coli
# Description: as §1, §2, §3
# [2] = system: florfenicol resistant E. coli clinical strain 2019XJ20; assay type: cell-based, Escherichia coli
# Description: as §1, §2, §3
# [3] = system: E. coli clinical strain 2018XJ105; assay type: cell-based, Escherichia coli
# Description: as §1, §2, §3
# [4] = system: E. coli clinical strain 2018XJ108; assay type: cell-based, Escherichia coli
# Description: as §1, §2, §3
# [5] = system: E. coli clinical strain 2019XJ25; assay type: cell-based, Escherichia coli
# Description: as §1, §2, §3
# [6] = system: E. coli clinical strain 2018XJ30; assay type: cell-based, Escherichia coli
# Description: as §1, §2, §3
# [7] = system: florfenicol resistant E. coli clinical strain 2017XJ30; assay type: cell-based, Escherichia coli
# Description: as §1, §2, §3
# S. aureus (ATCC 292130) = assay type: cell-based, Staphylococcus aureus
# [8] = system: 10 strains tested (E. coli, S. aureus, MRSA, clinical E. coli strains); assay type: cell-based
# Description: as §1, §2, §3
# [9] = florfenicol resistant clinical strain 2019XJ20
# [10] = florfenicol resistant clinical strain 2017XJ30
# [11] = Staphylococcus aureus, MRSA (ATCC 43300), MHB, read-out: MIC
# [12] = Escherichia coli, against the 10 strains tested, read-out: MIC
# [13] = Escherichia coli, ATCC25922, E.coli (ATCC 25922), MHB, read-out: MIC
# [14] = Escherichia coli, clinical E. coli 2019XJ06, MHB, read-out: MIC
# [15] = Escherichia coli, florfenicol resistant E. coli 2019XJ20, MHB, read-out: MIC
# [16] = Escherichia coli, clinical E. coli 2018XJ105, MHB, read-out: MIC
# [17] = Escherichia coli, clinical E. coli 2018XJ108, MHB, read-out: MIC
# [18] = Escherichia coli, clinical E. coli 2019XJ25, MHB, read-out: MIC
# [19] = Escherichia coli, clinical E. coli 2018XJ30, MHB, read-out: MIC
# [20] = Escherichia coli, florfenicol resistant E. coli 2017XJ30, MHB, read-out: MIC
# [21] = Staphylococcus aureus, ATCC292130, S. aureus (ATCC 292130), MHB, read-out: MIC
SMILES,MIC (MRSA (ATCC 43300); ATCC 43300) [µmol/L],MIC (E.coli (ATCC 25922); ATCC 25922) [µmol/L],MIC ([1]; clinical strain 2019XJ06) [µmol/L],"MIC [2, 9] [µmol/L]",MIC ([3]; clinical strain 2018XJ105) [µmol/L],MIC ([4]; clinical strain 2018XJ108) [µmol/L],MIC ([5]; clinical strain 2019XJ25) [µmol/L],MIC ([6]; clinical strain 2018XJ30) [µmol/L],"MIC [7, 10] [µmol/L]",MIC (S. aureus (ATCC 292130); ATCC 292130) [µmol/L],other results
N=C(N)NCCC[C@H](NC(=O)[C@H](CCCNC(=N)N)NC(=O)[C@H](CCCNC(=N)N)NC(=O)[C@H](CCCNC(=N)N)NC(=O)[C@H](CCCNC(=N)N)NC(=O)[C@@H](N)CCCNC(=N)N)C(N)=O [Compound D5],50,100,100,100,100,100,100,100,100,50,MIC [8]: 25 to 100 µmol/L
N=C(N)NCCC[C@H](N)C(N)=O [Compound D2],>100,>100,>100,>100,>100,>100,>100,>100,>100,>100,
N=C(N)NCCC[C@H](NC(=O)[C@H](CCCNC(=N)N)NC(=O)[C@H](CCCNC(=N)N)NC(=O)[C@H](CCCNC(=N)N)NC(=O)[C@H](CCCNC(=N)N)NC(=O)[C@H](CCCNC(=N)N)NC(=O)[C@H](CCCNC(=N)N)NC(=O)[C@@H](N)CCCNC(=N)N)C(N)=O [Compound D6],25,50,50,50,50,50,50,50,50,25,MIC [8]: 25 to 100 µmol/L
COC(=O)[C@@H](N)CCCNC(=N)N [Compound D1],>100,>100,>100,>100,>100,>100,>100,>100,>100,>100,
"CS(=O)(=O)c1ccc([C@@H](OC(=O)CCC(=O)O)[C@@H](CF)NC(=O)C(Cl)Cl)cc1 [Compound C1, florfenicol succinate]",,,,,,,,,,,"MIC (MRSA (ATCC 43300); [11]): > 100 µmol/L; MIC [8, 12]: > 100 µmol/L; MIC (E.coli (ATCC 25922); [13]): > 100 µmol/L; MIC [1, 14]: > 100 µmol/L; MIC [2, 15]: > 100 µmol/L; MIC [3, 16]: > 100 µmol/L; MIC [4, 17]: > 100 µmol/L; MIC [5, 18]: > 100 µmol/L; MIC [6, 19]: > 100 µmol/L; MIC [7, 20]: > 100 µmol/L; MIC (S. aureus (ATCC 292130); [21]): > 100 µmol/L"
N=C(N)NCCC[C@H](NC(=O)[C@@H](N)CCCNC(=N)N)C(N)=O [Compound D3] (H-Arg-Arg-NH2),>100,>100,>100,>100,>100,>100,>100,>100,>100,>100,
"CS(=O)(=O)c1ccc([C@@H](OC(=O)CCCC(=O)O)[C@@H](CF)NC(=O)C(Cl)Cl)cc1 [Compound C2, florfenicol glutarate]",,,,,,,,,,,"MIC (MRSA (ATCC 43300); [11]): > 100 µmol/L; MIC [8, 12]: > 100 µmol/L; MIC (E.coli (ATCC 25922); [13]): > 100 µmol/L; MIC [1, 14]: > 100 µmol/L; MIC [2, 15]: > 100 µmol/L; MIC [3, 16]: > 100 µmol/L; MIC [4, 17]: > 100 µmol/L; MIC [5, 18]: > 100 µmol/L; MIC [6, 19]: > 100 µmol/L; MIC [7, 20]: > 100 µmol/L; MIC (S. aureus (ATCC 292130); [21]): > 100 µmol/L"
N=C(N)NCCC[C@H](NC(=O)[C@H](CCCNC(=N)N)NC(=O)[C@H](CCCNC(=N)N)NC(=O)[C@@H](N)CCCNC(=N)N)C(N)=O [Compound D4] (H-RRRR-NH2),>100,>100,>100,>100,>100,>100,>100,>100,>100,>100,

# Continued, in another order:
MIC (MRSA (ATCC 43300); ATCC 43300) [µmol/L],MIC (E.coli (ATCC 25922); ATCC 25922) [µmol/L],MIC ([1]; clinical strain 2019XJ06) [µmol/L],"MIC [2, 9] [µmol/L]",MIC ([3]; clinical strain 2018XJ105) [µmol/L],MIC ([4]; clinical strain 2018XJ108) [µmol/L],MIC ([5]; clinical strain 2019XJ25) [µmol/L],MIC ([6]; clinical strain 2018XJ30) [µmol/L],"MIC [7, 10] [µmol/L]",MIC (S. aureus (ATCC 292130); ATCC 292130) [µmol/L],SMILES,other results
>100,>100,>100,>100,>100,>100,>100,>100,>100,>100,CS(=O)(=O)c1ccc([C@@H](OC(=O)CCCC(=O)N[C@@H](CCCNC(=N)N)C(N)=O)[C@@H](CF)NC(=O)C(Cl)Cl)cc1 [Compound E8],
25,25,25,>100,25,25,25,25,>100,25,CS(=O)(=O)c1ccc([C@@H](OC(=O)CCC(=O)N[C@@H](CCCNC(=N)N)C(N)=O)[C@@H](CF)NC(=O)C(Cl)Cl)cc1 [Compound E2],
>100,>100,>100,>100,>100,>100,>100,>100,>100,>100,CS(=O)(=O)c1ccc([C@@H](OC(=O)CCCCC(=O)N[C@@H](CCCNC(=N)N)C(N)=O)[C@@H](CF)NC(=O)C(Cl)Cl)cc1 [Compound E14],
>100,>100,>100,>100,>100,>100,>100,>100,>100,>100,COC(=O)[C@H](CCCNC(=N)N)NC(=O)CCCCC(=O)O[C@H](c1ccc(S(C)(=O)=O)cc1)[C@@H](CF)NC(=O)C(Cl)Cl [Compound E13],
>100,>100,>100,>100,>100,>100,>100,>100,>100,>100,COC(=O)[C@H](CCCNC(=N)N)NC(=O)CCCC(=O)O[C@H](c1ccc(S(C)(=O)=O)cc1)[C@@H](CF)NC(=O)C(Cl)Cl [Compound E7],
50,25,25,>100,25,25,25,25,>100,50,COC(=O)[C@H](CCCNC(=N)N)NC(=O)CCC(=O)O[C@H](c1ccc(S(C)(=O)=O)cc1)[C@@H](CF)NC(=O)C(Cl)Cl [Compound E1],
